Assay results reported in PubChem BioAssay AID318 (DTP/NCI, 2004).
Where “and” joins values, the source holds several entries; their conditions need not be identical. Equal values may be shown once. Inconclusive results and toxic doses are left out.

Test system: BDF1 mice, P815 leukemia ip, survival T/C
Test: NCI In Vivo Anticancer Drug Screen. Data for tumor model P815 Mast Cell Leukemia (Ascitic) (intraperitoneal) in B6D2F1 (BDF1) mice
Details: endpoint: survival time, mean or median, higher = longer survival
Method: The antitumor activity of compounds was measured in mice bearing transplantable tumors. Survival or tumor size were measured and the results are expressed as the measurement made in the treated group (T) divided by the measurement made in the vehicle treated control group (C). The tumor model used in this assay is P815 Mast Cell Leukemia (Ascitic) (intraperitoneal) in B6D2F1 (BDF1) mice

[1] = dose: 25.0 mg/kg/injection, schedule: Q01DX015 (ip), vehicle: carboxymethylcellulose (CMC)
[2] = dose: 62.5 mg/kg/injection, schedule: Q01DX010 (ip), vehicle: saline
[3] = dose: 6.0 mg/kg/injection, schedule: Q01DX010 (ip), vehicle: saline
[4] = dose: 12.0 mg/kg/injection, schedule: Q01DX010 (ip), vehicle: saline
[5] = dose: 167.0 mg/kg/injection, schedule: Q01DX010 (ip), vehicle: saline
[6] = dose: 250.0 mg/kg/injection, schedule: Q01DX010 (ip), vehicle: saline
[7] = dose: 25.0 mg/kg/injection, schedule: Q01DX010 (ip), vehicle: saline
[8] = dose: 50.0 mg/kg/injection, schedule: Q01DX010 (ip), vehicle: saline
[9] = dose: 5.0 mg/kg/injection, schedule: Q01DX010 (ip), vehicle: saline
[10] = dose: 10.0 mg/kg/injection, schedule: Q01DX010 (ip), vehicle: saline
[11] = dose: 20.0 mg/kg/injection, schedule: Q01DX010 (ip), vehicle: saline
[12] = dose: 40.0 mg/kg/injection, schedule: Q01DX010 (ip), vehicle: saline
[13] = dose: 31.3 mg/kg/injection, schedule: Q01DX010 (ip), vehicle: saline
[14] = dose: 125.0 mg/kg/injection, schedule: Q01DX010 (ip), vehicle: saline
[15] = dose: 2.0 mg/kg/injection, schedule: Q01DX010 (ip), vehicle: saline
[16] = dose: 18.0 mg/kg/injection, schedule: Q01DX010 (ip), vehicle: saline
[17] = dose: 27.0 mg/kg/injection, schedule: Q01DX010 (ip), vehicle: saline
[18] = dose: 16.0 mg/kg/injection, schedule: Q01DX010 (ip), vehicle: saline
[19] = dose: 8.0 mg/kg/injection, schedule: Q01DX010 (ip), vehicle: saline

## CN(Cc1cnc2nc(N)nc(N)c2n1)c1c(Cl)cc(C(=O)NC(CCC(=O)O)C(=O)O)cc1Cl (stereo unspecified)
dose: 5.0 mg/kg/injection, schedule: Q01DX015 (ip), vehicle: carboxymethylcellulose (CMC)
  T/C: 150 % of control
dose: 10.0 mg/kg/injection, schedule: Q01DX015 (ip), vehicle: carboxymethylcellulose (CMC)
  T/C: 164 % of control
dose: 13.2 mg/kg/injection, schedule: Q01DX015 (ip), vehicle: carboxymethylcellulose (CMC)
  T/C: 166 % of control
dose: 20.0 mg/kg/injection, schedule: Q01DX015 (ip), vehicle: carboxymethylcellulose (CMC)
  T/C: 164 % of control
[1]
  T/C: 190 % of control
dose: 30.0 mg/kg/injection, schedule: Q01DX015 (ip), vehicle: carboxymethylcellulose (CMC)
  T/C: 181 % of control
dose: 45.0 mg/kg/injection, schedule: Q01DX015 (ip), vehicle: carboxymethylcellulose (CMC)
  T/C: 179 % of control
dose: 67.5 mg/kg/injection, schedule: Q01DX015 (ip), vehicle: carboxymethylcellulose (CMC)
  T/C: 164 % of control
dose: 100.0 mg/kg/injection, schedule: Q01DX015 (ip), vehicle: carboxymethylcellulose (CMC)
  T/C: 121 % of control

## COc1ccc(CSc2ncnc3nc[nH]c23)cc1
dose: 62.5 mg/kg/injection, schedule: Q01DX015 (ip), vehicle: carboxymethylcellulose (CMC)
  T/C: 91 % of control

## CCCCNc1ncnc2c1cnn2C
dose: 31.25 mg/kg/injection, schedule: Q01DX010 (ip), vehicle: saline
  T/C: 95 % of control and 100 % of control
[2]
  T/C: 108 % of control

## Nc1ncnc2[nH]ncc12
dose: 1.5 mg/kg/injection, schedule: Q01DX010 (ip), vehicle: saline
  T/C: 100 % of control
dose: 3.0 mg/kg/injection, schedule: Q01DX010 (ip), vehicle: saline
  T/C: 100 % of control
[3]
  T/C: 100 % of control and 104 % of control
[4]
  T/C: 100 % of control and 109 % of control

## O=C(Nc1ccc(C2=NCCN2)cc1)c1ccc(C(=O)Nc2ccc(C3=NCCN3)cc2)cc1
dose: 75.0 mg/kg/injection, schedule: Q01DX010 (ip), vehicle: saline
  T/C: 158 % of control
dose: 112.0 mg/kg/injection, schedule: Q01DX010 (ip), vehicle: saline
  T/C: 175 % of control
[5]
  T/C: 175 % of control
[6]
  T/C: 108 % of control

## COS(C)(=O)=O
dose: 12.5 mg/kg/injection, schedule: Q01DX010 (ip), vehicle: saline
  T/C: 100 % of control
[7]
  T/C: 100 % of control
[8]
  T/C: 100 % of control

## N=C(N)SCc1c2ccccc2c(CSC(=N)N)c2ccccc12
[9]
  T/C: 162 % of control
[10]
  T/C: 175 % of control and 200 % of control
[11]
  T/C: 150 % of control
[12]
  T/C: 150 % of control

## CCCSc1ncnc2nc[nH]c12
[13]
  T/C: 100 % of control and 111 % of control
[2]
  T/C: 111 % of control
[14]
  T/C: 111 % of control and 122 % of control

## O=C(Nc1ccc(C2=NCCN2)cc1)c1cc(C(=O)Nc2ccc(C3=NCCN3)cc2)cc([N+](=O)[O-])c1
[5]
  T/C: 91 % of control
[6]
  T/C: 95 % of control
dose: 375.0 mg/kg/injection, schedule: Q01DX010 (ip), vehicle: saline
  T/C: 91 % of control

## Nc1nc(=S)c2ncn(C3OC(CO)C(O)C3O)c2[nH]1 (stereo unspecified)
[15]
  T/C: 155 % of control

## Clc1ncnc2nc[nH]c12
dose: 7.5 mg/kg/injection, schedule: Q01DX010 (ip), vehicle: saline
  T/C: 100 % of control
dose: 9.5 mg/kg/injection, schedule: Q01DX010 (ip), vehicle: saline
  T/C: 100 % of control
dose: 15.0 mg/kg/injection, schedule: Q01DX010 (ip), vehicle: saline
  T/C: 100 % of control
dose: 30.0 mg/kg/injection, schedule: Q01DX010 (ip), vehicle: saline
  T/C: 100 % of control
dose: 60.0 mg/kg/injection, schedule: Q01DX010 (ip), vehicle: saline
  T/C: 104 % of control and 109 % of control

## CN=C(NC)c1ccc(NC(=O)c2ccc(C(=O)Nc3ccc(C(=NC)NC)cc3)c(Cl)c2)cc1
[16]
  T/C: 91 % of control
[17]
  T/C: 100 % of control

## Cc1cc(N(CCCl)CCCl)ccc1N=Nc1ccccc1C(=O)O
[9]
  T/C: 105 % of control and 111 % of control
[10]
  T/C: 105 % of control and 111 % of control
[11]
  T/C: 111 % of control
[12]
  T/C: 88 % of control

## N#C[C@@H]1C2C=CC(CC2)[C@H]1C#N
dose: 0.25 mg/kg/injection, schedule: Q01DX010 (ip), vehicle: saline
  T/C: 100 % of control
dose: 0.5 mg/kg/injection, schedule: Q01DX010 (ip), vehicle: saline
  T/C: 100 % of control and 105 % of control
dose: 1.0 mg/kg/injection, schedule: Q01DX010 (ip), vehicle: saline
  T/C: 100 % of control
[15]
  T/C: 88 % of control and 100 % of control

## O=C(Nc1ccc(C2=NCCN2)cc1)Nc1cccc(NC(=O)Nc2ccc(C3=NCCN3)cc2)c1
dose: 120.0 mg/kg/injection, schedule: Q01DX010 (ip), vehicle: saline
  T/C: 258 % of control and 276 % of control
dose: 240.0 mg/kg/injection, schedule: Q01DX010 (ip), vehicle: saline
  T/C: 88 % of control and 92 % of control

## CCCCn1cnc2c(=S)nc[nH]c21
[18]
  T/C: 105 % of control
dose: 32.0 mg/kg/injection, schedule: Q01DX010 (ip), vehicle: saline
  T/C: 100 % of control
dose: 64.0 mg/kg/injection, schedule: Q01DX010 (ip), vehicle: saline
  T/C: 111 % of control
dose: 128.0 mg/kg/injection, schedule: Q01DX010 (ip), vehicle: saline
  T/C: 105 % of control

## NC12CC3CC(CC(C3)C1)C2
[7]
  T/C: 100 % of control
[8]
  T/C: 100 % of control
dose: 100.0 mg/kg/injection, schedule: Q01DX010 (ip), vehicle: saline
  T/C: 105 % of control

## CN=C(NC)c1ccc(NC(=O)Nc2ccc(NC(=O)Nc3ccc(C(=NC)NC)cc3)cc2)cc1
dose: 13.3 mg/kg/injection, schedule: Q01DX010 (ip), vehicle: saline
  T/C: 108 % of control
[11]
  T/C: 112 % of control

## C[C@@H]1C[C@@H]([C@H](O)CC2CC(=O)NC(=O)C2)C(=O)[C@@H](C)C1
[9]
  T/C: 109 % of control and 118 % of control
[10]
  T/C: 104 % of control and 109 % of control
[11]
  T/C: 109 % of control and 118 % of control
[12]
  T/C: 118 % of control

## O=C(Nc1cccc(NC(=O)Nc2cccc(C3=NCCN3)c2)c1)Nc1cccc(C2=NCCN2)c1
[17]
  T/C: 121 % of control
[12]
  T/C: 117 % of control
dose: 66.0 mg/kg/injection, schedule: Q01DX010 (ip), vehicle: saline
  T/C: 113 % of control
dose: 90.0 mg/kg/injection, schedule: Q01DX010 (ip), vehicle: saline
  T/C: 86 % of control

## CN(C)/N=N/c1nc[nH]c1C(N)=O
[1]
  T/C: 103 % of control
dose: 50.0 mg/kg/injection, schedule: Q01DX015 (ip), vehicle: carboxymethylcellulose (CMC)
  T/C: 110 % of control
dose: 150.0 mg/kg/injection, schedule: Q01DX015 (ip), vehicle: carboxymethylcellulose (CMC)
  T/C: 96 % of control

## CC1CN=C(c2ccc(NC(=O)c3cccc(C(=O)Nc4ccc(C5=NCC(C)N5)cc4)c3)cc2)N1 (stereo unspecified)
[4]
  T/C: 112 % of control
[16]
  T/C: 104 % of control
[17]
  T/C: 112 % of control

## CC(=O)Nc1ccc(/C=N/Nc2ccc([N+](=O)[O-])cn2)cc1
[13]
  T/C: 100 % of control
[2]
  T/C: 100 % of control
[14]
  T/C: 100 % of control
[6]
  T/C: 88 % of control

## CC(=O)N(C)C
[2]
  T/C: 91 % of control and 100 % of control
[14]
  T/C: 100 % of control and 108 % of control
[6]
  T/C: 91 % of control
dose: 500.0 mg/kg/injection, schedule: Q01DX010 (ip), vehicle: saline
  T/C: 95 % of control and 104 % of control

## O=C(Nc1ccc(C2=NCCN2)cc1)c1ccc(C(=O)Nc2ccc(C3=NCCN3)cc2)c([N+](=O)[O-])c1
[3]
  T/C: 171 % of control
[19]
  T/C: 284 % of control
[4]
  T/C: 92 % of control

## C[C@H](N)C(=O)N[C@@H]1[C@H]2C(=C(O)C[C@@H](O)[C@@H]2O)C(=O)O[C@@H]1C
dose: 150.0 mg/kg/injection, schedule: Q01DX010 (ip), vehicle: saline
  T/C: 122 % of control
dose: 1200.0 mg/kg/injection, schedule: Q01DX010 (ip), vehicle: saline
  T/C: 183 % of control

## CC(CCC(C)OS(C)(=O)=O)OS(C)(=O)=O (stereo unspecified)
[15]
  T/C: 100 % of control
dose: 4.0 mg/kg/injection, schedule: Q01DX010 (ip), vehicle: saline
  T/C: 100 % of control and 105 % of control
[19]
  T/C: 100 % of control and 105 % of control
[18]
  T/C: 120 % of control
